Reference: patent US20250223281A1, “ANTIDIABETIC COMPOUNDS AND COMPOSITIONS” (REZUBIO PHARMACEUTICALS CO., LTD, priority 2022, published 2025)

Target: T1, GPR40 (Homo sapiens, UniProt O14842)
T1 construct: expressed in transfected cells; host or cells: HEK293 cells stably expressing GPR40 (Hygromycin selection)
Test: IP1 accumulation assay in HEK293 cells stably expressing GPR40
Format: cell-based
Procedure: IP1 accumulation assay was used to evaluate the potency of compounds. HEK293 cells stably expressing GPR40 were cultured in 5% CO2 incubator (ThermoFisher) in maintenance media (Dulbecco's modified Eagle's medium with 4.5 g/L of glucose, 10% fetal bovine serum, 100 μg/mL Hygromycin, and Penicillin (100 U/mL)/Streptomycin (100 μg/mL)) till 100% confluency. Cells were harvested freshly, spun down at 300×g for 5 min, and resuspended in pre-warmed 1× stimulant buffer from Cisbio IP-One HTRF Detection kit (Cisbio). Cell density was adjusted to 2.0×10^6 cells/mL. DMSO was used as blank control and AMG-1638 (CAS #: 1142214-62-7) as positive control. Compounds were prepared at 10 mM in DMSO and 5 nL of 3× serially diluted compounds (10 concentrations) were added to each well of the 384-LDV assay plate (Corning) by using ECHO 550 (Labcyte). Five μL of cells in suspension were transferred into each well by using Multidrop Combi Reagent Dispenser (ThermoFisher). Assay plate was then sealed and incubated at 37° C. for 2 hours. IP-d2 reagent and anti-IP1 reagent were prepared following the manual (Cisbio). Five μL of IP1-d2 and then 5 μL of anti-IP1 antibody was added to each well sequentially. Assay plate was incubated at room temperature for 60 min and then read at 665 nm/615 nm on an Envision plate reader (PerkinElmer). The ratio of values obtained at 665 nm and 615 nm was used for calculation of IP1 accumulation: % Effect=(Ratiosample−Ratioblank)/(RatioAMG-1638−Ratioblank)×100. Dose curve was fitted and EC50 of each compound was calculated by using XLFit.

[1] = IP1 accumulation, HEK293 cells stably expressing GPR40, 2 hours at 37° C., % effect relative to AMG-1638, table of Biological Example 1
[2] = Table A-8 (additional examples), obtained by methods of Biological Example 1
[3] = Tables A-1a to A-7b (structure-property relationship), obtained by methods of Biological Example 1

T1 sequence (O14842 whole entry): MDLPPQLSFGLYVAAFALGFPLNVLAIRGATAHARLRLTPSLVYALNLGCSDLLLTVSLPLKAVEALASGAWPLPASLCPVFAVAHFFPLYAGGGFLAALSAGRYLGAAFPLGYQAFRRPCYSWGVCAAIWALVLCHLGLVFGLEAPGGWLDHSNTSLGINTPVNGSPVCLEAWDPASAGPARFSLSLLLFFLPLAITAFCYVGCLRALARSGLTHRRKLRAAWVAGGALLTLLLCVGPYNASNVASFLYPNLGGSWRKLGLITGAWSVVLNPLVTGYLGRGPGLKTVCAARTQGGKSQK

EC50 [1] | EC50 [2] | EC50 [3] | SMILES
8.8 nM | – | – | COc1ccc(F)c(-c2ccc(COc3cccc([C@@H](CC(=O)O)C4CC4)c3)cc2C(OC)C(C)(C)Cn2cc(CCCCCCCCCCCCCCCCCC(=O)NCCN(CCC(=O)NCCN)CCC(=O)NCCN)nn2)c1 (stereo partly drawn) [Example 14]
18.8 nM | – | – | COc1ccc(F)c(-c2ccc(COc3cccc([C@@H](CC(=O)O)C4CC4)c3)cc2CC(C)(C)Cn2cc(CCCCCCCCCCCCCC(=O)NCCC[N+](C)(CC(=O)NCCN)CC(=O)NCCN)nn2)c1 [Example 155]
> 10000 nM | > 10000 nM | – | C[C@H](C(=O)O)[C@H](c1ccc2c(c1)O[C@@H](C1CCN(Cc3cc(-n4cc(COCCOCCOCCOCCOCC(=O)NCCN(CCC(=O)NCCN)CCC(=O)NCCN)nn4)ccc3OC(F)(F)F)CC1)CC2)C1CC1 [Example 173]
1.52 nM | – | – | COc1ccc(F)c(-c2ccc(COc3cccc([C@@H](CC(=O)O)C4CC4)c3)cc2CC(C)(C)Cc2cn(CCCCCCCCCCCCCCCCCC(=O)NCC[N+](C)(C)CCCS(=O)(=O)O)nn2)c1 [Example 91]
5.15 nM | – | – | COc1ccc(C(=O)N(CC(C)(C)CCCCCCn2cc(CCCCCCCCCC(=O)NCCC[N+](C)(CC(=O)[O-])CC(=O)O)nn2)c2cccc(C)n2)c(N2CCC(COc3cc([C@@H](CC(=O)O)C4CC4)ccn3)CC2)c1 (stereo partly drawn) [Example 208]
200 nM | > 200 nM | – | COc1ccc(F)c(-c2ccc(COc3cccc([C@@H](CC(=O)O)C4CC4)c3)cc2CC(C)(C)Cn2cc(COCCOCCOCCOCCOCC(=O)NCC[N+](C)(CCC(=O)NCCN)CCC(=O)NCCN)nn2)c1 [Example 170]
0.75 nM | – | 1.92 nM | COc1ccc(C(=O)N(CC(C)(C)CCCCCCn2cc(CCCCCCCCC(=O)NCCN(CCC(=O)NCCN)CCC(=O)NCCN)nn2)c2cccc(C)n2)c(N2CCC(COc3cc([C@@H](CC(=O)O)C4CC4)ccn3)CC2)c1 [Example 75]
> 10000 nM | > 10000 nM | – | COc1ccc(F)c(-c2ccc(COc3cccc([C@@H](CC(=O)O)C4CC4)c3)cc2CC(C)(C)Cn2cc(COCCOCCOCC(=O)NCCN(CCC(=O)NCCN)CCC(=O)NCCN)nn2)c1 [Example 165]
1.4 nM | – | 1.4 nM | C[C@H](C(=O)O)[C@H](c1ccc2c(c1)O[C@@H](C1CCN(Cc3cc(-n4cc(CCCCCCCCCCCCCC(=O)NCCN(CCC(=O)NCCN)CCC(=O)NCCN)nn4)ccc3OC(F)(F)F)CC1)CC2)C1CC1 [Example 78]
2600 nM | – | – | COc1ccc(F)c(-c2ccc(COc3cccc([C@@H](CC(=O)O)C4CC4)c3)cc2OC(C)(C)Cn2cc(CCCCCCCCCCC(=O)NCCN(CCC(=O)NCCN)CCC(=O)NCCN)nn2)c1 [Example 137]
> 10000 nM | – | > 10000 nM | COc1ccc(C(=O)N(CC(C)(C)CCn2cc(CCCCC(=O)NCC[N+](C)(CCC(=O)NCCN)CCC(=O)NCCN)nn2)c2cccc(C)n2)c(N2CCC(COc3cc([C@@H](CC(=O)O)C4CC4)ccn3)CC2)c1 [Example 199]
152 nM | 169 nM | 152 nM | COc1ccc(F)c(-c2ccc(COc3cccc([C@@H](CC(=O)O)C4CC4)c3)cc2CC(C)(C)Cn2cc(CCCCCCCCCCCCC(=O)NCC[N+](C)(CCC(=O)NCCN)CCC(=O)NCCN)nn2)c1 [Example 17]
0.29 nM | – | – | COc1ccc(C(=O)N(CC(C)(C)CCCCCCn2cc(CCCCCCCCCCCCCCCCCC(=O)NCC[N+](C)(CCC(=O)NCCN)CCC(=O)NCCN)nn2)c2cccc(C)n2)c(N2CCC(COc3cc([C@@H](CC(=O)O)C4CC4)ccn3)CC2)c1 [Example 42]
0.05 nM | – | – | COc1ccc(C(=O)N(CC(C)(C)CCn2cc(CCCCCCCCCCCCCCCCCC(=O)NCCC[N+](C)(C)CC(=O)NCCN)nn2)c2cccc(C)n2)c(N2CCC(COc3cc([C@@H](CC(=O)O)C4CC4)ccn3)CC2)c1 [Example 151]
> 10000 nM | – | – | COc1ccc(F)c(-c2ccc(COc3cccc([C@@H](CC(=O)O)C4CC4)c3)cc2CC(C)(C)Cn2cc(CCCCCCCCCC(=O)NCCC[N+](C)(CC(=O)[O-])CC(=O)O)nn2)c1 (stereo partly drawn) [Example 105]
> 10000 nM | > 10000 nM | – | COc1ccc(F)c(-c2ccc(COc3cccc([C@@H](CC(=O)O)C4CC4)c3)cc2CC(C)(C)Cn2cc(COCCOCCOCCOCCOCC(=O)NCCN(CCC(=O)NCCN)CCC(=O)NCCN)nn2)c1 [Example 167]
4.05 nM | – | 4.05 nM | COc1ccc(F)c(-c2ccc(COc3cccc([C@@H](CC(=O)O)C4CC4)c3)cc2CC(C)(C)Cc2cn(CCCCCCCCCCCCCCC(=O)NCC[N+](C)(CCC(=O)NCCN)CCC(=O)NCCN)nn2)c1 [Example 102]

EC50 [1] | EC50 [2] | EC50 [3] | SMILES
0.93 nM | – | – | COc1ccc(C(=O)N(CC(C)(C)CCCCCCn2cc(CCCCCCCCCCCC(=O)NCCCN(CC(=O)O)CC(=O)O)nn2)c2cccc(C)n2)c(N2CCC(COc3cc([C@@H](CC(=O)O)C4CC4)ccn3)CC2)c1 [Example 205]
0.05 nM | – | 0.05 nM | COc1ccc(C(=O)N(CC(C)(C)CCCCCCn2cc(CCCCCCCCCCCCCC(=O)NCCN(CCC(=O)NCCN)CCC(=O)NCCN)nn2)c2cccc(C)n2)c(N2CCC(COc3cc([C@@H](CC(=O)O)C4CC4)ccn3)CC2)c1 [Example 189]
11.9 nM | – | – | COc1ccc(C(=O)N(CC(C)(C)CCCCCCn2cc(CCCCCCCCC(=O)NCCCN(CC(=O)O)CC(=O)O)nn2)c2cccc(C)n2)c(N2CCC(COc3cc([C@@H](CC(=O)O)C4CC4)ccn3)CC2)c1 [Example 203]
0.19 nM | – | 0.19 nM | COc1ccc(C(=O)N(CC(C)(C)CCn2cc(CCCCCCCCCCCCCCCCC(=O)NCCCN(CC(=O)O)CC(=O)O)nn2)c2cccc(C)n2)c(N2CCC(COc3cc([C@@H](CC(=O)O)C4CC4)ccn3)CC2)c1 [Example 132]
0.05 nM | 0.05 nM | 0.05 nM | C[C@H](C(=O)O)[C@H](c1ccc2c(c1)O[C@@H](C1CCN(Cc3cc(-n4cc(CCCCCCCCCCCCCCCC(=O)NCCN(CCC(=O)NCCN)CCC(=O)NCCN)nn4)ccc3OC(F)(F)F)CC1)CC2)C1CC1 [Example 185]
0.88 nM | – | 0.88 nM | COc1ccc(C(=O)N(CC(C)(C)CCn2cc(CCCCCCCCCCCCCC(=O)NCCC[N+](C)(CC(=O)[O-])CC(=O)O)nn2)c2cccc(C)n2)c(N2CCC(COc3cc([C@@H](CC(=O)O)C4CC4)ccn3)CC2)c1 (stereo partly drawn) [Example 129]
138 nM | – | 138 nM | COc1ccc(F)c(-c2ccc(COc3cccc([C@@H](CC(=O)O)C4CC4)c3)cc2CC(C)(C)Cn2cc(CCCCCCCCCCCCCC(=O)NCCN(CCC(=O)NCCN)CCC(=O)NCCN)nn2)c1 [Example 55]
34.4 nM | – | – | COc1ccc(F)c(-c2ccc(COc3cccc([C@@H](CC(=O)O)C4CC4)c3)cc2CC(C)(C)Cn2cc(CCCCCCCCCCCCCC(=O)NCCCN(CC(=O)NCCN)CC(=O)NCCN)nn2)c1 [Example 152]
9.46 nM | 9.46 nM | 9.46 nM | C[C@H](C(=O)O)[C@H](c1ccc2c(c1)O[C@@H](C1CCN(Cc3cc(-n4cc(CCCCCCCCCCCCC(=O)NCC[N+](C)(CCC(=O)NCCN)CCC(=O)NCCN)nn4)ccc3OC(F)(F)F)CC1)CC2)C1CC1 [Example 2]
> 6000 nM | > 6000 nM | – | COc1ccc(C(=O)N(CC(C)(C)CCn2cc(COCCOCCOCC(=O)NCCN(CCC(=O)NCCN)CCC(=O)NCCN)nn2)c2cccc(C)n2)c(N2CCC(COc3cc([C@@H](CC(=O)O)C4CC4)ccn3)CC2)c1 [Example 159]
0.43 nM | – | – | COc1ccc(F)c(-c2ccc(COc3cccc([C@@H](CC(=O)O)C4CC4)c3)cc2CC(C)(C)Cn2cc(CCCCCCCCCCCCCCCCCC(=O)NCCC[N+](C)(C)CC(=O)NCCN)nn2)c1 [Example 148]
1.53 nM | 1.53 nM | 1.53 nM | COc1ccc(F)c(-c2ccc(COc3cccc([C@@H](CC(=O)O)C4CC4)c3)cc2CC(C)(C)Cn2cc(CCCCCCCCCCCCCCCC(=O)NCC[N+](C)(CCC(=O)NCCN)CCC(=O)NCCN)nn2)c1 [Example 188]
8.54 nM | – | – | COc1ccc(F)c(-c2ccc(COc3cccc([C@@H](CC(=O)O)C4CC4)c3)cc2OC(C)(C)Cn2cc(CCCCCCCCCCCCCCC(=O)NCC[N+](C)(CCC(=O)NCCN)CCC(=O)NCCN)nn2)c1 [Example 139]
5.81 nM | – | 5.81 nM | COc1ccc(C(=O)N(CC(C)(C)CCn2cc(CCCCCCCCCCCC(=O)NCCCN(CC(=O)O)CC(=O)O)nn2)c2cccc(C)n2)c(N2CCC(COc3cc([C@@H](CC(=O)O)C4CC4)ccn3)CC2)c1 [Example 126]
3.54 nM | – | 3.54 nM | COc1ccc(C(=O)N(CC(C)(C)CCCCCCn2cc(CCCCCCC(=O)NCCN(CCC(=O)NCCN)CCC(=O)NCCN)nn2)c2cccc(C)n2)c(N2CCC(COc3cc([C@@H](CC(=O)O)C4CC4)ccn3)CC2)c1 [Example 98]
5240 nM | 5240 nM | – | C[C@H](C(=O)O)[C@H](c1ccc2c(c1)O[C@@H](C1CCN(Cc3cc(-n4cc(COCCOCCOCCOCC(=O)NCCN(CCC(=O)NCCN)CCC(=O)NCCN)nn4)ccc3OC(F)(F)F)CC1)CC2)C1CC1 [Example 172]
